Reference: patent publication EP0966282B1, “USE OF THE ANGIOTENSIN II ANTAGONISTS LOSARTAN AND EXP-3174 TO TREAT SYMPTOMATIC HEART FAILURE” (priority 1997, dated 1998)
Like-named read-outs stand apart in the source and are kept apart here. Marks after values point to notes of the source that are not given here.

Assays:
[1] = system: older patients with symptomatic heart failure; settings: for hospitalized overall for any reason: 48-week study observation period, p=0.018; for died of progressive heart failure: number of patients in each treatment group; for sudden cardiac death: p=0.043; for female patients died: subpopulation of female patients: of 118 losartan-treated, of 122 captopril-treated; for patients classified as New York Heart Association Class I or II at the end of the study: week 48, versus 66 percent (losartan) and 64 percent (captopril) at baseline
Text: The study was approved by institutional review boards at each site; all patients gave written informed consent. An independent Data and Safety Monitoring Committee monitored the progress of the study. See Pitt B, Chang P, Timmermans P. Angiotensin II receptor antagonists in heart failure: Rationale and design of the Evaluation of Losartan in the Elderly (ELITE) Trial. Cardiovascular Drugs and Therapy 1995; 9: 693-700.
A detailed description of enrollment and exclusion criteria and study design has been presented previously. See Pitt B, Chang P, Timmermans P. Angiotensin II receptor antagonists in heart failure: Rationale and design of the Evaluation of Losartan in the Elderly (ELITE) Trial. Cardiovascular Drugs and Therapy 1995; 9: 693-700.
Titration generally occurred at 7-day intervals as tolerated. Treatment with all other concomitant cardiovascular therapies was permitted with the exception of open-label ACE inhibitors. Randomized patients were stratified by age (less than 70 and 70 years or greater).
Clinical assessments were performed weekly during titration and at three-month intervals thereafter. Laboratory evaluations were performed at weeks three, six, and twelve, and at three month intervals thereafter.
See Example 2) Hypotension-related symptoms, clinically important serum potassium increases (≥ 0.5 mEq/L), and cough, all originally secondary endpoints, were moved to tertiary endpoints. All deaths (including cause of death) and hospitalizations were adjudicated by an independent Clinical Endpoint Adjudication Committee, blinded to study treatment (see panel for mortality classification). Other prospectively-defined measures included myocardial infarction/hospitalization for unstable angina, worsening of heart failure, New York Heart Association functional classification, discontinuation from the study due to study drug intolerance, changes in neurohormonal profile.
• Sudden Cardiac Death: Death occurring without warning or within 1 hour of symptoms • Death due to Progressive Heart Failure: Death preceded by worsening signs and/or symptoms of heart failure, including cardiogenic shock • Fatal Myocardial Infarction: Death associated with autopsy-verified myocardial infarction or death within 28 days of a hospital-verified acute myocardial infarction provided no other cardiac or non-cardiac cause of death is found • Death due to Other Cardiac Causes: Death due to other cardiac causes, such as arrhythmia • Death due to Other Vascular Causes: Death due to vascular events such as stroke, pulmonary embolus, ruptured aneurysm, etc. • Death due to non-cardiovascular causes: Death not due to any cardiac or vascular events
The power and sample-size estimates for this study have been described. See Pitt B, Chang P, Timmermans P. Angiotensin II receptor antagonists in heart failure: Rationale and design of the Evaluation of Losartan in the Elderly (ELITE) Trial. Cardiovascular Drugs and Therapy 1995; 9: 693-700. Analysis of renal dysfunction (increases in serum creatinine) was based upon a modified intent-to-treat population; i.e., all patients were analyzed according to their randomization group, and an endpoint was declared only if initial and confirmatory elevations occurred while on double-blind therapy. Patients who discontinued from the study without meeting this endpoint were censored in the time-to-event analysis at the time of study discontinuation.
Analyses of deaths and heart failure hospitalizations (adjudicated endpoints) were based on an intent-to-treat population; all patients discontinued prematurely were followed through the specified 48-week period of the study. Patients not meeting the endpoint were censored in the time-to-event analysis either at the time of study completion (for patients who completed) or at the end of the 48-week follow-up period (for patients who discontinued).
For all time-to-event data, survival analyses were based upon the log-rank test.

[2] = system: patients with symptomatic heart failure; assay: Exercise study Protocol A: 12-week placebo-controlled study of losartan, clinical events; type: in vivo; settings: for CHF Hospitalization (during DB) / Death: 12 weeks; for CHF Hospitalization (during DB): one patient hospitalized 2 days after discontinuation included; for Death: during double-blind therapy or related to SAE during double-blind
Text: (§1) Protocols A & B were, multicenter, double-blind, randomized, parallel, placebo-controlled studies to investigate the effects of losartan on the exercise capacity and clinical status of patients over the age of 18 with symptomatic heart failure.
(§2) Approximately three hundred and fifty (350) patients with symptomatic heart failure (NYHA Functional Class II-IV, at least 50% Class III-IV) and left ventricular ejection fraction ≤40% were randomized to receive either losartan or placebo once daily for 12 weeks in each study. Following a minimum 15-day baseline placebo period, during which a minimum of 5 and maximum of 8 sets of baseline exercise tests (treadmill exercise test and 6-minute walk test) were performed, patients were randomized to treatment with losartan or placebo in a 2:1 ratio, respectively. According to the protocol's, patients must not have received an ACE-inhibitor for at least 6 weeks prior to the third baseline exercise test visit. Treatment with an ACE-inhibitor was not allowed at any time during these studies.
(§3) This report summarizes the results of the Meta-analysis performed (as proposed in the Data Analysis Plan) on the observed mortality and congestive heart failure (CHF) hospitalization across these two studies. The mortality and CHF hospitalization were not predefined endpoints in the protocols but it was intended that they be analyzed as a part of safety. Thus results from these analyses should not be interpreted as a test of significance as there were no predefined hypotheses corresponding to these safety parameters. […] Odds ratio's with 95% confidence intervals have been provided for these variables.
(§4) Peto-modified Mantel-Haenszel (Fleiss, J.L., Statistical Methods for Rates and Proportions, Wiley, NY, 1981.) method was used to carry out the Meta-analysis of death and CHF hospitalization rates in the two 12 week exercise studies. This method assumes homogeneity across the studies and provides a test for heterogeneity.
A total of three hundred and fifty one (351) patients were enrolled in the protocol A study; 237 patients were randomized to receive losartan and 114 patients were randomized to receive placebo. There were 4 (3.5%) deaths in the placebo group as compared to 4 (1.7%) in the losartan group during the double-blind therapy or as related to serious adverse events (AE) during double-blind. Additionally there were 10 (8.8%) CHF hospitalizations in the placebo group as compared to 10 (4.2%) in the losartan group during the double-blind therapy or as related to serious AE during double-blind. One patient included in the losartan group discontinued due to worsening HF and was hospitalized 2 days after discontinuation from double-blind period.

[3] = system: patients with symptomatic heart failure; assay: Meta-analysis of clinical events, Protocols A & B (Peto-modified Mantel-Haenszel method); type: in vivo; settings: for CHF Hospitalization, Odds Ratio / Death, Odds Ratio: Meta-analysis Protocols A & B, odds in placebo group relative to losartan group
Experimental: as §3, with “variables. Peto-modified Mantel-Haenszel (Fleiss, J.L., Statistical Methods for Rates and Proportions, Wiley, NY, 1981.) method was used to carry out the Meta-analysis of death and CHF hospitalization rates in the two 12 week exercise studies. This method assumes homogeneity across the studies and provides a test for heterogeneity. […] Since the results from protocols A and B are consistent, a safety Meta-analysis as proposed in the Data Analysis Plan has been performed. Homogeneity between the two studies with respect to odds ratio's for death and CHF hospitalization was found.” for “variables.”

[4] = system: patients with symptomatic heart failure; assay: Exercise study Protocol B: 12-week placebo-controlled study of losartan, clinical events; type: in vivo; settings: for CHF Hospitalization (during DB) / Death: 12 weeks; for Death: during double-blind therapy or related to Serious AE during double-blind
Text: as §1, §2, §3, §4
A total of three hundred and eighty five (385) patients were enrolled in the protocol B exercise study; 254 patients were randomized to receive losartan and 131 patients were randomized to receive placebo. There were 9 (6.9%) deaths in the placebo group as compared to 3 (1.2%) in the losartan group during the double-blind therapy or as related to serious AE during double-blind. Additionally there were 7 (5.3%) CHF hospitalizations in the placebo group as compared to 5 (2.0%) in the losartan group during the double-blind therapy or as related to serious AE during double-blind.

[5] = of 352 losartan-treated, of 370 captopril-treated patients
[6] = number of patients of 237 randomized to losartan
[7] = odds in placebo group relative to losartan group
[8] = losartan compared to captopril, controlled for age category
[9] = losartan compared to captopril, negative = increase in risk
[10] = number of patients of 254 randomized to losartan

C[C@H](CS)C(=O)N1CCC[C@H]1C(=O)O [Captopril, captopril, reference compound]
hospitalized overall for any reason ([1]; number of patients): 119 patients | hospitalized overall for any reason [1]: 32.2% | incidence of heart failure hospitalizations ([1]; 48 weeks): 5.7% | incidence of death due to progressive heart failure ([1]; human, in vivo): less than one | Cause of death: Cardiovascular, Fatal Myocardial Infarction ([1]; intent-to-treat, 48 weeks): 4 ( 1.1) number (percent) of patients | Cause of death: Cardiovascular, Other Vascular ([1]; intent-to-treat, 48 weeks): 5 ( 1.4) number (percent) of patients | Cause of death: Cardiovascular, Progressive Heart Failure ([1]; intent-to-treat, 48 weeks): 1 ( 0.3) number (percent) of patients | Cause of death: Cardiovascular, Sudden Death ([1]; intent-to-treat, 48 weeks): 14 ( 3.8) number (percent) of patients | Cause of death: Non-cardiovascular ([1]; intent-to-treat, 48 weeks): 8 ( 2.2) number (percent) of patients | Death and/or Hospitalization for Heart Failure ([1]; intent-to-treat, 48 weeks): 49 (13.2) number (percent) of patients | Hospitalization for Heart Failure ([1]; intent-to-treat, 48 weeks): 21 ( 5.7) number (percent) of patients | total mortality ([1]; intent-to-treat, 48 weeks): 32 ( 8.7) number (percent) of patients | Fatal myocardial infarction ([1]; number of patients): four | died of progressive heart failure [1]: one | total mortality ([1]; number of patients, p=0.035): 32 patients | sudden cardiac death ([1]; number of patients): 14 patients | death and/or heart failure hospitalizations [1, 5]: 49 patients | death and/or heart failure hospitalizations ([1]; percent of patients, p=0.075): 13.2% | female patients died [1]: 8 patients | patients classified as New York Heart Association Class I or II at the end of the study [1]: 82%

CCCCc1nc(Cl)c(CO)n1Cc1ccc(-c2ccccc2-c2nn[nH]n2)cc1 [Losartan]
CHF Hospitalization (during DB) [2]: 4.2%^a | CHF Hospitalization (during DB) ([2]; listed as losartan): 4.2% | Death [2]: 1.7% | Death ([2]; listed as losartan): 1.7% | CHF hospitalizations [2, 6]: 10 | deaths [2, 6]: 4 | CHF Hospitalization, Odds Ratio [2, 7]: 2.2 | Death, Odds Ratio [2, 7]: 2.1 | hospitalized overall for any reason ([1]; number of patients): 86 patients | hospitalized overall for any reason [1]: 24.4% | incidence of heart failure hospitalizations ([1]; 48 weeks): 5.7% | Single rises of serum creatinine ≥0.3 mg/dL, risk reduction ([1]; human, in vivo): 14% | incidence of death due to progressive heart failure ([1]; human, in vivo): less than one | patients discontinued for renal function reason ([1]; human, in vivo): less than 2% | persistent increases in serum creatinine ≥0.3 mg/dL from baseline ([1]; human, in vivo): 10.5% | tolerability ([1]; human, in vivo): better tolerated compared to captopril | Cause of death: Cardiovascular, Fatal Myocardial Infarction ([1]; intent-to-treat, 48 weeks): 1 (0.3) number (percent) of patients | Cause of death: Cardiovascular, Other Vascular ([1]; intent-to-treat, 48 weeks): 5 (1.4) number (percent) of patients | Cause of death: Cardiovascular, Progressive Heart Failure ([1]; intent-to-treat, 48 weeks): 1 (0.3) number (percent) of patients | Cause of death: Cardiovascular, Sudden Death ([1]; intent-to-treat, 48 weeks): 5 (1.4) number (percent) of patients | Cause of death: Non-cardiovascular ([1]; intent-to-treat, 48 weeks): 5 (1.4) number (percent) of patients | Death and/or Hospitalization for Heart Failure ([1]; intent-to-treat, 48 weeks): 33 (9.4) number (percent) of patients | Hospitalization for Heart Failure ([1]; intent-to-treat, 48 weeks): 20 (5.7) number (percent) of patients | total mortality ([1]; intent-to-treat, 48 weeks): 17 (4.8) number (percent) of patients | Death and/or Hospitalization for Heart Failure, RISK REDUCTION (95% CI) [1, 8]: 0.32 (- 0.04, 0.55) | Fatal Myocardial Infarction, RISK REDUCTION (95% CI) [1, 8]: 0.76 (- 0.83, 0.97) | Hospitalization for Heart Failure, RISK REDUCTION (95% CI) [1, 8]: 0.04 (- 0.74, 0.47) | Non-cardiovascular death, RISK REDUCTION (95% CI) [1, 8]: 0.35 (- 0.94, 0.78) | Sudden Death, RISK REDUCTION (95% CI) [1, 8]: 0.64 ( 0.03, 0.86) | Total Mortality, RISK REDUCTION (95% CI) [1, 8]: 0.46 ( 0.05, 0.69) | Death from Other Vascular causes, RISK REDUCTION (95% CI) [1, 9]: -0.03 (- 2.63, 0.71) | Death from Progressive Heart Failure, RISK REDUCTION (95% CI) [1, 9]: -0.11 (-20.23, 0.94) | decrease in total mortality (lower risk of death) ([1]; losartan versus captopril, 48 weeks, P=0.035): 46% | Fatal myocardial infarction ([1]; number of patients): one | died of progressive heart failure [1]: one | total mortality ([1]; number of patients, p=0.035): 17 patients | sudden cardiac death ([1]; number of patients): five | death and/or heart failure hospitalizations [1, 5]: 33 patients | death and/or heart failure hospitalizations ([1]; percent of patients, p=0.075): 9.4% | female patients died [1]: 9 patients | patients classified as New York Heart Association Class I or II at the end of the study [1]: 80% | CHF Hospitalization, Odds Ratio [3]: 2.4* | Death, Odds Ratio [3]: 3.5* | CHF Hospitalization, Odds Ratio ([3]; listed as losartan): 2.4 | Death, Odds Ratio ([3]; listed as losartan): 3.5 | CHF Hospitalization (during double-blind) ([3]; Protocols A & B combined): 3.1% ^a | Death ([3]; Protocols A & B combined, during double-blind therapy or related to Serious AE): 1.4% | CHF Hospitalization (during DB) [4]: 2.0% | CHF Hospitalization (during DB) ([4]; listed as losartan): 2.0% | Death [4]: 1.2% | Death ([4]; listed as losartan): 1.2% | CHF hospitalizations [4, 10]: 5 | deaths [4, 10]: 3 | CHF Hospitalization, Odds Ratio [4, 7]: 2.7 | Death, Odds Ratio [4, 7]: 5.6* | Death, Odds Ratio ([4]; odds in placebo group relative to losartan group, listed as losartan): 5.6
